Results on 1 compound are retold here after patent US11116708B2, “Personal care compositions including naringin:zinc complexes and methods for the same” (Colgate-Palmolive Company, priority 2017, dated 2021).

For test [1], the system named is human epidermal keratinocyte cells. Briefly: Scratch assay (cell migration / gap closure) using human epidermal keratinocyte cells. The conditions noted are these: 0.001% sample. It counts as cell-based. As to the method:
The cell regeneration function or properties of the naringin:zinc complex were evaluated via a scratch assay using human epidermal keratinocyte cells obtained from Thermal Fisher Scientific of Gaithersburg, Md. Particularly, monolayers of keratinocyte cells were gown to full confluency in separate wells, and each well was scratched with a 1000 μl tip to create a cell-free gap. Each of the wells with the cell-free gap was then washed with 1 mL of PBS twice to remove any dead floating cells. […] Distance measurements of the gap were taken every 24 hours until the gaps fully closed.
It should be appreciated that a relatively higher value of the percentage of gap closure indicates a relatively greater repair or regeneration function.

The next test concerns IL-1a. Briefly: IL-1a assay using HaCaT cells stressed with 0.01% SDS (ELISA of cell supernatants). Type of test: cell-based. The conditions noted are these: 0.001% sample, 24 h pretreatment, 0.01% SDS stress 15 min, sample added again, normalized by cell viability. (In general: ELISA stands for enzyme-linked immunosorbent assay.)

Description for IL-1a: The anti-inflammatory properties of the naringin:zinc complex was evaluated by conducting an IL-la assay using HaCaT cells. To evaluate the anti-inflammatory properties, HaCaT cells were grown into 80% confluency and pretreated for 24 hours with 1 mL of each of the following samples: (1) a culture media (control); (2) 0.001% naringin:zinc complex; and (3) 0.001% naringin alone.
After pretreating the HaCaT cells, the cells were stressed with 0.01% SDS for 15 minutes before adding another 1 mL of each of the samples (1)-(3). Each of the HaCaT cells were used to prepare cell supernatants, which were used for IL-la assays with IL-la ELISA kits.

On to `C[C@@H]1O[C@@H](O[C@H]2[C@H](Oc3cc(O)c4c(c3)O[C@H](c3ccc(O)cc3)CC4=O)O[C@H](CO)[C@@H](O)[C@@H]2O)[C@H](O)[C@H](O)[C@H]1O` [Naringin, naringin], for which the Cell Migration of Keratinocytes (% Active); percentage of gap closure versus the starting gap distance in test [1] was determined as 58%. For the same compound, the IL-1a level in the test with IL-1a worked out at 6.6 pg/mL.
